Patent publication US20240091226A1, “Forms and Formulations Of A Tyrosine Kinase Non-Receptor 1 (TNK1) Inhibitor” (Sumitomo Pharma Oncology, inc., priority 2021, published 2024)
Read-outs that look alike come from different tables or passages of the source.

How the values were obtained:
[1] = tested on: Apc^Min+/− mice; assay: ApcMin mouse efficacy model; assay type: in vivo
Protocol: TNK1 upregulation is reported to play a role in the pathogenic process of intestinal barrier disruption in a transgenic mice model of increased TNK1 expression/activation (PMID: 30320600). Therefore, the efficacy of the compound of structural formula I was evaluated in germline mutant mouse model of intestinal neoplasia and cachexia, Apc^Min+/− model, which is also known to induce gut barrier dysfunction (PMID: 21914473). Apc^Min+/− mice are reported to start the development of tumors at approximately 4 weeks of age. Twenty female Apc^Min+/− mice (JAX Stock No: 002020) were enrolled in the study at the age of 10 weeks. Randomization was done based on the body weight, and animals were divided into four treatment groups (5 mice/group). […] Celecoxib is a COX-2 inhibitor, and was used as a positive control because it has been reported to prevent and regress adenomas in APC model (PMID: 11016626). Mice were sacrificed 2 hours after the last dose of total 10 weeks of dosing (71 days), at the age of 20 weeks. After dosing started, the animals were checked daily for morbidity and mortality.

[2] = tested on: 10 cell lines from a variety of tumor types; assay: 2D culture viability (counterpart of soft agar assay); assay type: cell-based
Protocol: (§1) In cancer research, natural cell characteristics and architectures can often be more closely mimicked by 3D cell models than monolayer cultures. The comparative efficacy of compound of structural formula I was explored in 2D and 3D culture systems using the soft agar colony formation assay and PDXO cultures. In each case, viability of the culture was assessed after treatment with compound of structural formula I.
(§2) Soft Agar Colony Formation Assay. Soft agar colony formation assay was performed in 10 cell lines from a variety of tumor types ranging from lung cancers to colorectal and prostate cancers (Pro Quinase Reaction Biology, Project Number: 17262). A complete list of tumor types used in the assay can be found in Table 7.1.

[3] = tested on: LU0743B organoid (Lung); assay: PDXO viability assay (Cell Titre Glo); assay type: cell-based; settings: 120 h, 5 days of treatment
Protocol: as §1
(§3) Viability Assay in Patient-Derived Xenograft Organoid Cell Lines (PDXO). To mimic more closely cancer tissue-like architecture, PDX organoids derived from patient-derived xenograft tissue were utilized. Viability assay was performed in 10 PDXO models, and the IC50 values were assessed after 5 days of treatment with compound of structural formula I using Cell Titre Glo.

[4] = tested on: LU11693B organoid (Lung); assay: PDXO viability assay (Cell Titre Glo); assay type: cell-based; settings: 120 h, 5 days of treatment
Protocol: as §1, §3

[5] = tested on: 10 PDXO models; assay: PDXO viability assay (Cell Titre Glo); assay type: cell-based; settings: all of the organoids tested, except CR6863B
Protocol: as §1, §3

[6] = tested on: BL5001B organoid (Bladder); assay: PDXO viability assay (Cell Titre Glo); assay type: cell-based; settings: 120 h, 5 days of treatment
Protocol: as §1, §3

[7] = tested on: CR6863B organoid (Colorectal); assay: PDXO viability assay (Cell Titre Glo); assay type: cell-based; settings: 120 h, 5 days of treatment
Protocol: as §1, §3

[8] = tested on: GA6891B organoid (Gastric); assay: PDXO viability assay (Cell Titre Glo); assay type: cell-based; settings: 120 h, 5 days of treatment
Protocol: as §1, §3

[9] = tested on: CR1489B organoid (Colorectal); assay: PDXO viability assay (Cell Titre Glo); assay type: cell-based; settings: 120 h, 5 days of treatment
Protocol: as §1, §3

[10] = tested on: CR5088B organoid (Colorectal); assay: PDXO viability assay (Cell Titre Glo); assay type: cell-based; settings: 120 h, 5 days of treatment
Protocol: as §1, §3

[11] = tested on: LU11873B organoid (Lung); assay: PDXO viability assay (Cell Titre Glo); assay type: cell-based; settings: 120 h, 5 days of treatment
Protocol: as §1, §3

[12] = tested on: LU6800B organoid (Lung); assay: PDXO viability assay (Cell Titre Glo); assay type: cell-based; settings: 120 h, 5 days of treatment
Protocol: as §1, §3

[13] = tested on: ES6470B organoid (Esophageal); assay: PDXO viability assay (Cell Titre Glo); assay type: cell-based; settings: 120 h, 5 days of treatment
Protocol: as §1, §3

[14] = tested on: A549 cells; assay: Soft agar colony formation assay, 3D vs 2D; assay type: cell-based; settings: for IC50: Homo sapiens, A549, Lung
Protocol: as §1, §2

[15] = tested on: DU145 cells; assay: Soft agar colony formation assay, 3D vs 2D; assay type: cell-based; settings: for IC50: Homo sapiens, DU-145, DU145, Prostate
Protocol: as §1, §2

[16] = tested on: HT29 cells; assay: Soft agar colony formation assay, 3D vs 2D; assay type: cell-based; settings: for IC50: Homo sapiens, HT-29, HT29, Colorectal
Protocol: as §1, §2

[17] = Four-week capsule stability: assay and related substances (HPLC); assay type: physicochemical; settings: initial (not stored)
Protocol: Methods: Samples were stored (closed) at 40° C. and […] (RH). Appearance, water content, assay and related substances (HPLC) were tested (n=6), sink dissolution.

[18] = tested on: 10 cell lines from a variety of tumor types; assay: Soft agar colony formation assay (3D colonies); assay type: cell-based; settings: for IC50: 3D soft agar colonies
Protocol: as §1, §2

[19] = Homo sapiens, HCT-116, HCT116, Colorectal
[20] = 3D soft agar colonies, read-out: 3D IC50

With `COc1cc(N2CCN(C)CC2)c(Cl)cc1Nc1ncc(Cl)c(Nc2cccnc2N2CCCC2=O)n1` [compound of structural formula I, 1-(3-((5-chloro-2-((5-chloro-2-methoxy-4-(4-methylpiperazin-1-yl)phenyl)amino)pyrimidin-4-yl)amino)pyridin-2-yl)pyrrolidin-2-one] as the molecule, how does the “reduction of spleen size compared to vehicle” value ([1]; 10 mg/kg) read?
Its value is “approximately 52%”.

And the “reduction of spleen size compared to vehicle” value ([1]; 25 mg/kg)?
Its value is “approximately 40%”.

And the “decrease in number of polyps in the intestine compared to vehicle” value ([1]; 25 mg/kg once daily oral gavage, 10 weeks, female Apc^Min+/− mice)?
Its value is “approximately 49%”.

What about the mean spleen weight ([1]; 25 mpk) of the same molecule?
The mean spleen weight was 191 mg.

What about the “polyp growth” value ([1]; FIG. 8B) of the same molecule?
The value was “inhibits polyp growth”.

What about the “splenomegaly and inflammation” value ([1]; FIG. 8C) of the same molecule?
Its value is “attenuated”.

What about the IC50 [2, 19] of the same molecule?
The IC50 was 3.36 µM.

What about the IC50 ([2]; Homo sapiens, Lovo, Colorectal) of the same molecule?
Its IC50 is 3.58 µM.

And the IC50 ([2]; PC3, Prostate)?
The IC50 was > 10 µM.

What about the IC50 [3] of the same molecule?
Its IC50 is 2430 nM.

And the IC50 [4]?
Its IC50 is 2120 nM.

What about the IC50 [5] of the same molecule?
The IC50 was < 10 µM.

What about the IC50 [6] of the same molecule?
The IC50 was 400 nM.

What about the IC50 [7] of the same molecule?
The IC50 was 10.1 µM.

What about the IC50 [8] of the same molecule?
The IC50 was 1240 nM.

And the IC50 [9]?
The IC50 was 2180 nM.

And the IC50 [10]?
Its IC50 is 3.25 µM.

What about the IC50 [11] of the same molecule?
The IC50 was 440 nM.

What about the IC50 [12] of the same molecule?
The IC50 was 400 nM.

And the IC50 [13]?
Its IC50 is 510 nM.

What about the “shift in IC50, 3D colonies vs 2D” value ([14]; A549) of the same molecule?
Its value is “approximately 40 fold”.

What about the IC50 ([14]; 2D culture, read-out: 2D IC50) of the same molecule?
The IC50 was > 10000 nM.

And the IC50 [14, 20]?
Its IC50 is 250 nM.

What about the “shift in IC50, 3D colonies vs 2D” value ([15]; DU145) of the same molecule?
Its value is “approximately 19 fold”.

What about the IC50 ([15]; 2D culture, read-out: 2D IC50) of the same molecule?
Its IC50 is 2700 nM.

And the IC50 [15, 20]?
Its IC50 is 140 nM.

What about the “shift in IC50, 3D colonies vs 2D” value ([16]; HT29) of the same molecule?
Its value is “approximately 32 fold”.

What about the IC50 ([16]; 2D culture, read-out: 2D IC50) of the same molecule?
The IC50 was 7.68 µM.

What about the IC50 [16, 20] of the same molecule?
Its IC50 is 0.24 µM.

And the “Related substance at RRT 0.84” value [17]?
The value was <0.05%.

What about the “Related substance at RRT 0.89” value [17] of the same molecule?
The value was 0.15%.

And the “Related substance at RRT 0.97” value [17]?
Its value is 0.15%.

And the “Related substance at RRT 1.08” value [17]?
Its value is 0.11%.

And the “Related substance at RRT 1.13” value [17]?
Its value is <0.05%.

What about the “Related substance at RRT 1.20” value [17] of the same molecule?
Its value is 0.09%.

And the “Related substance at RRT 1.21” value [17]?
The value was 0.05%.

And the “Related substance at RRT 1.24” value [17]?
The value was 0.08%.

What about the “Related substance at RRT 1.29” value [17] of the same molecule?
Its value is <0.05%.

What about the “Related substance at RRT 1.33” value [17] of the same molecule?
The value was <0.05%.

What about the “Total Impurities” value [17] of the same molecule?
Its value is 0.63%.

What about the IC50 ([18]; Homo sapiens, A2058, A2058, Melanoma) of the same molecule?
Its IC50 is 980 nM.

And the IC50 ([18]; Homo sapiens, C-33-A, C33A, Cervical)?
The IC50 was 900 nM.

And the IC50 [18, 19]?
Its IC50 is 750 nM.

And the IC50 ([18]; Homo sapiens, LoVo, Colorectal)?
The IC50 was 2900 nM.

And the IC50 ([18]; Homo sapiens, SW948, SW948, Colorectal)?
The IC50 was 730 nM.

And the IC50 ([18]; PC3, Prostate)?
Its IC50 is 870 nM.

What about the IC50 ([18]; T84, Colorectal) of the same molecule?
The IC50 was 1500 nM.

And the “sensitivity of 3D colonies compared to 2D counterparts (in words)” value ([18]; most of the cell lines tested)?
The value was “increased sensitivity”.
